Test systems include MOLT-4 leukemia; PC-3 prostate; HOP-92 NSCLC; HCT-116 colon; OVCAR-5 ovarian; MCF7 breast; ACHN renal; COLO 205 colon; T-47D breast; HS 578T breast.
What all share (experiment): NCI tumour cell line growth inhibition, 48 h

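Results reflect a 48-hour exposure of cells in 96-well plates to compound at five concentrations. GI50: concentration for 50% inhibition of growth. Definition used: TGI = concentration required for complete inhibition of growth.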

Take `CCCCCSC1C2C(=O)C(Br)=CC13CCNc1c(O)c4c5c(c13)=[N+]2CCC=5C=N4` (stereo not given): the GI50 is 0.762 µM in the assay with MOLT-4 leukemia; 2 µM in the assay with PC-3 prostate; 3.02 µM in the assay on HOP-92 NSCLC; 0.419 µM in the assay with HCT-116 colon; 3.07 µM with OVCAR-5 ovarian; 0.341 µM in the assay on MCF7 breast. In addition, the GI50 in the assay on ACHN renal is 1.75 µM; in the assay on COLO 205 colon, 0.303 µM; in the assay with T-47D breast, 1.74 µM; in the assay with HS 578T breast it was 5.47 µM. The TGI in the assay with MOLT-4 leukemia was 5.73 µM; in the assay on PC-3 prostate, 7.45 µM; with HOP-92 NSCLC, 6.2 µM; with HCT-116 colon, 1.28 µM; in the assay with OVCAR-5 ovarian it was 7.08 µM; in the assay on MCF7 breast, 0.883 µM. Also, the TGI in the assay on ACHN renal is 3.97 µM; in the assay with COLO 205 colon, 0.613 µM; in the assay with T-47D breast it was 6.03 µM; in the assay with HS 578T breast, 16.7 µM.
Consider `Oc1c(CNCCNCc2cc(Cl)cc(Cc3ccccc3)c2O)cc(Cl)cc1Cc1ccccc1`, for which the GI50 with MOLT-4 leukemia was 0.342 µM; in the assay on PC-3 prostate, 0.62 µM; with HOP-92 NSCLC, 2.68 µM; with HCT-116 colon it was 0.398 µM; with OVCAR-5 ovarian, 1.2 µM; in the assay with MCF7 breast, 0.291 µM. Further, the GI50 in the assay on ACHN renal was 0.127 µM; in the assay with COLO 205 colon, 0.309 µM; in the assay on T-47D breast, 0.391 µM; with HS 578T breast it was 3.91 µM. In addition, the TGI is > 100 µM in the assay on MOLT-4 leukemia; > 100 µM in the assay with PC-3 prostate; 23.9 µM with HOP-92 NSCLC; 13.2 µM with HCT-116 colon; > 100 µM in the assay with OVCAR-5 ovarian; 47.7 µM with MCF7 breast. For the same molecule, the TGI with ACHN renal came to 11.8 µM; in the assay with COLO 205 colon it was 1.53 µM; in the assay with T-47D breast, 37.9 µM; in the assay on HS 578T breast, 59.3 µM.
Regarding `CCN(CC)c1ccc(/C=C/C=C(/C#N)C(N)=S)cc1`, the GI50 is 2.19 µM in the assay on MOLT-4 leukemia; 5.21 µM in the assay with PC-3 prostate; 10.8 µM in the assay on HOP-92 NSCLC; 3.58 µM in the assay with HCT-116 colon; 4.83 µM with OVCAR-5 ovarian; 14.5 µM in the assay on MCF7 breast. The GI50 in the assay on ACHN renal was 24 µM; with COLO 205 colon it was 7.13 µM; in the assay on T-47D breast, 2.96 µM; in the assay with HS 578T breast it was 38.5 µM. Further, the TGI in the assay on MOLT-4 leukemia was 12 µM; in the assay with PC-3 prostate it was > 100 µM; in the assay on HOP-92 NSCLC it was 71.3 µM; in the assay with HCT-116 colon, 17.7 µM; in the assay with OVCAR-5 ovarian it was > 100 µM; in the assay on MCF7 breast, > 100 µM. Besides, the TGI with ACHN renal, in the assay on COLO 205 colon, in the assay with T-47D breast and with HS 578T breast was > 100 µM in each case.
As for `CC/C=C\C[C@H](O)C/C=C1/C(=O)C=C[C@@H]1C/C=C\CCCC(=O)NC`, the GI50 was 2.4 µM with MOLT-4 leukemia; 1.95 µM with PC-3 prostate; 3.3 µM in the assay with HOP-92 NSCLC; 0.612 µM in the assay with HCT-116 colon; 2 µM in the assay on OVCAR-5 ovarian; 0.455 µM in the assay with MCF7 breast. Also, the GI50 in the assay with ACHN renal was 1.56 µM; with COLO 205 colon it was 1.71 µM; with T-47D breast, 2.32 µM; in the assay on HS 578T breast, 5.24 µM. Also, the TGI in the assay with MOLT-4 leukemia worked out at 11.3 µM; in the assay with PC-3 prostate it was 4.79 µM; with HOP-92 NSCLC, 6.66 µM; with HCT-116 colon, 2.04 µM; with OVCAR-5 ovarian it was 4.27 µM; in the assay on MCF7 breast, 10.7 µM. Further, the TGI with ACHN renal was determined as 3.21 µM; in the assay with COLO 205 colon, 3.93 µM; in the assay with T-47D breast, 12.5 µM; in the assay on HS 578T breast, 55.2 µM.
On to `CN(C)c1ccc(/C=N/NC(=O)c2cccc3ccccc23)c(Cl)c1`, for which the GI50 is 2.31 µM in the assay with MOLT-4 leukemia; 2.24 µM in the assay with PC-3 prostate; 0.372 µM with HOP-92 NSCLC; 0.559 µM with HCT-116 colon; 24.1 µM with OVCAR-5 ovarian; 0.348 µM with MCF7 breast. The GI50 with ACHN renal was 5.65 µM; in the assay on COLO 205 colon, 2.88 µM; in the assay with T-47D breast, 2.95 µM; in the assay on HS 578T breast, 1.27 µM. Moreover, the TGI with MOLT-4 leukemia was > 100 µM; in the assay with PC-3 prostate, > 100 µM; in the assay with HOP-92 NSCLC it was 19.6 µM; in the assay with HCT-116 colon, > 100 µM; in the assay on OVCAR-5 ovarian, > 100 µM; in the assay on MCF7 breast, > 100 µM. Moreover, the TGI with ACHN renal, with COLO 205 colon, in the assay on T-47D breast and in the assay with HS 578T breast was > 100 µM throughout.
Regarding `COc1cc2c(cc1O)C(c1cc(O)c(O)c(OC)c1)C(O)(C(=O)O)C(CO)C2O` (stereo not given), the TGI with MOLT-4 leukemia was 44.3 µM; with PC-3 prostate, > 100 µM; in the assay on HOP-92 NSCLC, > 100 µM; with HCT-116 colon, 42.7 µM; in the assay on OVCAR-5 ovarian, > 100 µM; in the assay with MCF7 breast it was 42.5 µM. Further, the TGI in the assay on ACHN renal, with COLO 205 colon, with T-47D breast and with HS 578T breast was > 100 µM in each case.
Regarding `CNCCCn1c2c(c3ccc(F)cc3c1=O)C(=O)c1cc(OC)cnc1-2`, the GI50 with MOLT-4 leukemia was 0.0379 µM; in the assay with PC-3 prostate, 0.37 µM; with HOP-92 NSCLC, 0.371 µM; in the assay with HCT-116 colon it was 0.143 µM; in the assay on OVCAR-5 ovarian, 0.352 µM; in the assay with MCF7 breast, 0.0344 µM. Besides, the GI50 is 0.117 µM in the assay with ACHN renal, 0.0722 µM in the assay on COLO 205 colon, 0.16 µM in the assay with T-47D breast and 2.24 µM in the assay on HS 578T breast. The TGI with MOLT-4 leukemia amounted to 0.318 µM; in the assay on PC-3 prostate, 8.1 µM; in the assay on HOP-92 NSCLC, 3.15 µM; with HCT-116 colon it was 0.617 µM; with OVCAR-5 ovarian it was 1.87 µM; in the assay with MCF7 breast, 3.43 µM. In addition, the TGI with ACHN renal was found to be 0.362 µM; in the assay on COLO 205 colon it was 1.14 µM; with T-47D breast, 0.704 µM; with HS 578T breast, 16.2 µM.
Take `CN1CCN(c2ccc(C(=O)Nc3cccc(C#Cc4cccc5[nH]nc(N)c45)c3)cc2C(F)(F)F)CC1`: the GI50 in the assay with MOLT-4 leukemia is 0.645 µM; in the assay with PC-3 prostate, 0.953 µM; in the assay on HOP-92 NSCLC, 1.02 µM; in the assay with HCT-116 colon, 0.525 µM; in the assay with OVCAR-5 ovarian it was 0.959 µM; in the assay on MCF7 breast, 0.582 µM. Also, the GI50 was 0.801 µM with ACHN renal, 0.581 µM in the assay with COLO 205 colon, 1.24 µM with T-47D breast and 0.847 µM in the assay on HS 578T breast. For the same molecule, the TGI in the assay on MOLT-4 leukemia was determined as 1.57 µM; in the assay with PC-3 prostate, 7.92 µM; in the assay with HOP-92 NSCLC it was 4.07 µM; in the assay on HCT-116 colon, 1.04 µM; in the assay with OVCAR-5 ovarian, 3.27 µM; in the assay with MCF7 breast, 1.14 µM. For the same molecule, the TGI came out at 2.4 µM with ACHN renal, 1.2 µM in the assay with COLO 205 colon, 5.55 µM in the assay with T-47D breast and 3.4 µM in the assay on HS 578T breast.
Turning to `CC(=O)/C(=C\c1c(-c2ccccc2)[nH]c2ccccc12)S(=O)(=O)c1ccccc1`, the GI50 was 1.35 µM in the assay on MOLT-4 leukemia; 2.44 µM with PC-3 prostate; 3.66 µM in the assay on HOP-92 NSCLC; 0.727 µM with HCT-116 colon; 2.01 µM with OVCAR-5 ovarian; 0.903 µM in the assay with MCF7 breast. Further, the GI50 with ACHN renal was 2.06 µM; in the assay on COLO 205 colon, 1.54 µM; with T-47D breast, 1.26 µM; in the assay on HS 578T breast, 3.81 µM. The TGI in the assay on MOLT-4 leukemia was 6.39 µM; with PC-3 prostate it was 15 µM; in the assay with HOP-92 NSCLC, 15.4 µM; in the assay with HCT-116 colon, 2 µM; with OVCAR-5 ovarian, 5.46 µM; with MCF7 breast, 9.36 µM. In addition, the TGI with ACHN renal is 5.09 µM; with COLO 205 colon, 5.62 µM; with T-47D breast, 7.03 µM; in the assay on HS 578T breast it was > 93.8 µM.
On to `CC(C)(C)OC(=O)NCCCCCCCCCCn1c2c(c3ccccc3c1=O)C(=O)c1ccccc1-2`, for which the GI50 with MOLT-4 leukemia is 16.2 µM; with PC-3 prostate, > 100 µM; in the assay on HOP-92 NSCLC, 9.92 µM; in the assay with HCT-116 colon, 60 µM; in the assay on OVCAR-5 ovarian it was > 100 µM; in the assay with MCF7 breast, > 100 µM. Further, the GI50 was 18.5 µM in the assay with ACHN renal, > 100 µM with COLO 205 colon, > 100 µM with T-47D breast and 24.6 µM with HS 578T breast. The TGI in the assay with MOLT-4 leukemia was 31.2 µM; with PC-3 prostate, > 100 µM; in the assay with HOP-92 NSCLC it was 35.2 µM; in the assay with HCT-116 colon, > 100 µM; in the assay on OVCAR-5 ovarian, > 100 µM; in the assay with MCF7 breast it was > 100 µM. For the same molecule, the TGI with ACHN renal was 66 µM; in the assay with COLO 205 colon, > 100 µM; in the assay with T-47D breast, > 100 µM; in the assay on HS 578T breast it was > 100 µM.
As for `Nc1nc(-c2cc(-c3cccc4ccccc34)nc(N)n2)cc(-c2cccc3ccccc23)n1`, the TGI with MOLT-4 leukemia, in the assay on PC-3 prostate, in the assay with HOP-92 NSCLC, with HCT-116 colon, with OVCAR-5 ovarian and with MCF7 breast was > 100 µM throughout. Moreover, the TGI in the assay on ACHN renal, in the assay on COLO 205 colon, in the assay with T-47D breast and in the assay with HS 578T breast was > 100 µM each time.

These data come from PubChem BioAssay (NCI).
